The format of series [1] is physicochemical. On the procedure:
The phase solubility binding curve for Salmeterol xinafoate and budesonide was determined as described herein, and the approximate equilibrium binding constant (Ki) of each with CAPTISOL was determined. […] The molar ratio of CAPTISOL to Salmeterol xinafoate at saturated solubility was about 3.2 under the test conditions used. Their may be a reduction in the amount of budesonide solubilized by CAPTISOL in the presence of Salmeterol xinafoate; however, clear aqueous liquid solution formulations comprising therapeutically effective amounts of budesonide and Salmeterol xinafoate were prepared.

The conditions of series [2]: human, in vivo; cited from earlier work.
The nature of series [3]: Density of CAPTISOL solutions (pycnometer). To be noted: 25° C. Type of series: physicochemical. The protocol:
The concentration of SAE-CD in solution can be expressed on a weight to weight or weight to volume basis; however, these two units are interconvertible. When a known weight of cyclodextrin is dissolved in a known weight of water, the % w/w cyclodextrin concentration is determined by dividing the cyclodextrin weight in grams by the total weight (cyclodextrin+water weight) in like units and multiplying by 100. When a known weight of cyclodextrin is dissolved to a known total volume, the % w/v cyclodextrin concentration is determined by dividing the cyclodextrin weight in grams by the total volume in milliliters and multiplying by 100. The correlation between the two cyclodextrin concentration percentages was experimentally determined by preparing various % w/w cyclodextrin solutions and measuring the density of each with a pycnometer at 25° C.

Series [4] is described as follows: Viscosity of SAE-CD solutions (cone and plate viscometer). To be noted: 25 C. The class given is physicochemical. The protocol:
The performance of an inhalable solution of the invention in a nebulizer may depend upon the viscosity of the solution in its reservoir, the nebulization solution. Viscosity of the inhalable composition can have an impact on percentage of nebulization composition emitted from a nebulizer, output rate of nebulized corticosteroid and droplet size distribution.
The viscosity of aqueous solutions containing SAE-CD were measured using a cone and plate viscometer.
A Brookfield Programmable DV-III+ Rheometer, CPE-40 cone and CPE 40Y plate (Brookfield Engineering Laboratories, Middleboro, Mass.) was used to make measurements on 0.5 ml samples at 1, 2, 3, 5 and 10 rpm. Samples were sheered for approximately 5 revolutions prior to each measurement. This allowed accurate rheological characterization of the samples. The temperature of all samples was equilibrated to 25±1 degree centigrade using a double wall viscometer cone supplied with water from an electronically controlled thermostatic circulating water bath (Model, 8001, Fisher Scientific, Pittsburgh, Pa.). The viscometer was calibrated using 5 and 50 centipoise using silicon oil calibration standards. Viscosity measurements were made at 5 or more rotation speeds to look for sheer thinning behavior (viscosities that decrease as the rate of sheer increases). Higher rotation speeds result in increased rates of sheer.

A further series has as its system red blood cells. To be noted: concentrations typically used to solubilize pharmaceutical formulations; cited from earlier work.

We go through 4 compounds from patent US20070202054A1, “Inhalant Formulation Containing Sulfoalkyl Ether Cyclodextrin and Corticosteroid” (priority 2003, published 2007).

For `CCCC1O[C@@H]2C[C@H]3[C@@H]4CCC5=CC(=O)C=C[C@]5(C)[C@H]4[C@@H](O)C[C@]3(C)[C@]2(C(=O)CO)O1` (stereo partly drawn) [Budesonide, (R,S)-11β,16α,17,21-tetrahydroxypregna-1,4-diene-3,20-dione cyclic 16,17-acetal with butyraldehyde], in series [1], the “approximate equilibrium binding constant (Ki) with CAPTISOL” value is given as approximately 600.

Turning to `OCc1cc(C(O)CNCCCCCCOCCCCc2ccccc2)ccc1O` (centres unmarked) [Salmeterol xinafoate], in series [1], the “approximate equilibrium binding constant (Ki) with CAPTISOL” value is on record as “approximately 3,500” and the “molar ratio of CAPTISOL to drug at saturated solubility” value is recorded as “about 3.2”.

As to `CCNC(=O)[C@@H]1CCCN1C(=O)[C@H](CCCNC(=N)N)NC(=O)[C@H](CC(C)C)NC(=O)[C@@H](CC(C)C)NC(=O)[C@H](Cc1ccc(O)cc1)NC(=O)[C@H](CO)NC(=O)[C@H](Cc1c[nH]c2ccccc12)NC(=O)[C@H](Cc1c[nH]cn1)NC(=O)[C@@H]1CCC(=O)N1` [leuprolide acetate], the mean bioavailability in series [2] is given as 6.6%.

In the case of “Sulfobutyl Ether-β-Cyclodextrin [Captisol]”, the Density in series [3] (Captisol 8.5 % w/w) amounted to 1.041 g/mL; in series [3] (Captisol 29.8 % w/w), 1.149 g/mL; in series [3] (Captisol 39.7 % w/w), 1.202 g/mL; in series [3] (Captisol 49.4 % w/w), 1.259 g/mL; in series [3] (Captisol 59.4 % w/w), 1.320 g/mL; in series [3] (Captisol […] w/w), 1.095 g/mL. The Viscosity in series [4] (Captisol 8.5 % w/w) came out at 1.75 Cp; in series [4] (Captisol 29.8 % w/w), 5.91 Cp; in series [4] (Captisol 39.7 % w/w), 17.0 Cp; in series [4] (Captisol 49.4 % w/w) it was 51.9 Cp; in series [4] (Captisol 59.4 % w/w), 527.0 Cp; in series [4] (Captisol […] w/w) it was 2.78 Cp. In the series on red blood cells, the hemolytic behavior result is “essentially no hemolytic behavior”.
